Results from US20050004186A1, “MEK inhibiting compounds” (Pfizer Inc, priority 2002, published 2005).

How the values were obtained:
MEK [1] = assay: Cellular assay for measuring MEK inhibition, C26ELSA (pERK ELISA format in C26 cells); assay type: cell-based, murine; details: for IC50: murine colon 26 (C26) carcinoma cells, one hour at 37 C; for C26ELSA % Inhib @ 0.5 μM / C26ELSA % Inhibition @ 5 μM: C26 cells
Procedure: Cellular Assay for Measuring MEK Inhibition
MEK inhibitors were evaluated by determining their ability to inhibit phosphorylation of MAP kinase (ERK) in murine colon 26 (C26) carcinoma cells. Since ERK1 and ERK2 represent the only known substrates for MEK1 and MEK2, the measurement of inhibition of ERK phosphorylation in cells provides direct read out of cellular MEK inhibition by the compounds of the invention. Detection of phosphorylation of ERK was carried out either by Western blot or ELISA format. Briefly, the assays involve treatment of exponentially growing C26 cells with varying concentrations of the test compound (or vehicle control) for one hour at 37≡ C. For Western blot assay, cells were rinsed free of compound/vehicle and lysed in a solution containing 70 mM NaCl, 50 mM glycerol phosphate, 10 mM HEPES, […], 1% Triton X-100, 1 mM Na3VO4, 100 μM PMSF, 10 μM leupeptin and 10 μM pepstatin. Supernatants were then subjected to gel electrophoresis and hybridized to a primary antibody recognizing dually phosphorylated ERK1 and ERK2. To evaluate total MAPK levels, blots were subsequently ‘stripped’ and re-probed with a 1:1 mixture of polyclonal antibodies recognizing unphosphorylated ERK1 and ERK2. For pERK ELISA assay, pERK TiterZyme Enzyme immunometric Assay kits were acquired from Assay Designs, Inc (Ann Arbor, Mich.). Briefly, cells were harvested in lysis solution containing 50 mM β-glycerophosphate, 10 mM HEPES, pH7.4, 70 mM NaCl, 2 mM EDTA and 1% SDS and protein lysates were diluted 1:15 with supplied Assay buffer prior to the execution of the assay. The subsequent steps were carried out essentially as recommended by the manufacturer.

MEK [2] = assay: Cellular assay for measuring MEK inhibition, C26CPA1 (inhibition of ERK phosphorylation in C26 cells); assay type: cell-based, murine; details: murine colon 26 (C26) carcinoma cells, one hour at 37 C
Method in brief: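 Exponentially growing murine C26 carcinoma cells treated with test compound for one hour at 37° C. CPA1 read-out: Western blot of lysates with dually phosphorylated ERK1/2 antibody, re-probed for total ERK1/2. ELSA read-out: pERK enzyme immunometric ELISA on SDS lysates diluted 1:15.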

Row | Structure (SMILES) | melting point | IC50 (MEK [1]) [nM] | IC50 (MEK [2]) [nM] | C26ELSA % Inhib @ 0.5 μM (MEK [1]) [%] | C26ELSA % Inhibition @ 5 μM (MEK [1]) [%]
1 | OCCc1ccc(Nc2c(-c3nnc(NCCN4CCOCC4)o3)ccc(F)c2F)c(F)c1 [Example 157, 2-(4-{2,3-difluoro-6-[5-(2-morpholin-4-yl-ethylamino)-[1,3,4]oxadiazol-2-yl]-phenylamino}-3-fluoro-phenyl)-ethanol] |  |  |  | 31 | 33
2 | OC[C@H](O)CNc1nnc(-c2ccc(F)c(F)c2Nc2ccc(I)cc2F)o1 [Example 150, 3-{5-[3,4-Difluoro-2-(2-fluoro-4-iodo-phenylamino)-phenyl]-[1,3,4]oxadiazol-2-ylamino}-propane-1,2 (R)-diol] | 174 to 176 °C | 92 |  |  | 
3 | CCN(CC)CCCNc1nnc(-c2ccc(F)c(F)c2Nc2ccc(I)cc2F)o1 [Example 10, N-{5-[3,4-Difluoro-2-(2-fluoro-4-iodo-phenylamino)-phenyl]-[1,3,4]oxadiazol-2-yl}-N′,N′-diethyl-propane-1,3-diamine] | 116 to 118 °C |  | 153 |  | 
4 | COCCN1CCN(c2nnc(-c3ccc(F)c(F)c3Nc3ccc(I)cc3F)o2)CC1 [Example 22, (2,3-Difluoro-6-{5-[4-(2-methoxy-ethyl)-piperazin-1-yl]-[1,3,4]oxadiazol-2-yl}-phenyl)-(2-fluoro-4-iodo-phenyl)-amine] | 63 to 65 °C |  | 130 |  | 
5 | CC(C)(CO)CCCNc1nnc(-c2ccc(F)c(F)c2Nc2ccc(I)cc2F)o1 [Example 23, 5-{5-[3,4-Difluoro-2-(2-fluoro-4-iodo-phenylamino)-phenyl]-[1,3,4]oxadiazol-2-ylamino}-2,2-dimethyl-pentan-1-ol] | 67 to 70 °C |  | 292 |  | 
6 | CCc1ccc(Nc2c(-c3nnc(NCCNC)o3)ccc(F)c2F)c(F)c1 [Example 67, N-{5-[2-(4-Ethyl-2-fluoro-phenylamino)-3,4-difluoro-phenyl]-[1,3,4]oxadiazol-2-yl}-N′-methyl-ethane-1,2-diamine] | 154 to 157 °C |  | 16 |  | 
7 | CCc1ccc(Nc2c(-c3nnc(CCCBr)o3)ccc(F)c2F)c(F)c1 [Example 145, {6-[5-(3-Bromo-propyl)-[1,3,4]oxadiazol-2-yl]-2,3-difluoro-phenyl}-(4-ethyl-2-fluoro-phenyl)-amine] |  |  |  |  | 13
8 | C#Cc1ccc(Nc2c(-c3nnc(CC)o3)ccc(F)c2F)c(F)c1 [Example 144, [6-(5-Ethyl-[1,3,4]oxadiazol-2-yl)-2,3-difluoro-phenyl]-(4-ethynyl-2-fluoro-phenyl)-amine] |  |  |  |  | 43
9 | CC(=O)c1ccc(Nc2c(-c3nnc(NCCN4CCOCC4)o3)ccc(F)c2F)c(F)c1 [Example 149, 1-(4-{2,3-Difluoro-6-[5-(2-morpholin-4-yl-ethylamino)-[1,3,4]oxadiazol-2-yl]-phenylamino}-3-fluoro-phenyl)-ethanone] |  |  |  | 2 | 14
10 | CCc1ccc(Nc2c(-c3nnc(CCCN4CCOCC4)o3)ccc(F)c2F)c(F)c1 [Example 146, {2,3-Difluoro-6-[5-(3-morpholin-4-yl-propyl)-[1,3,4]oxadiazol-2-yl]-phenyl}-(4-ethyl-2-fluoro-phenyl)-amine] |  |  |  |  | 6
11 | OCC(CO)Nc1nnc(-c2ccc(F)c(F)c2Nc2ccc(I)cc2F)o1 [Example 154, 2-{5-[3,4-Difluoro-2-(2-fluoro-4-iodo-phenylamino)-phenyl]-[1,3,4]oxadiazol-2-ylamino}-propane-1,3-diol] | 110 to 114 °C (dec.) | 110 |  |  | 

More lines, main results first:

Row | melting point | IC50 (MEK [1]) [nM] | IC50 (MEK [2]) [nM] | Structure (SMILES) | C26ELSA % Inhib @ 0.5 μM (MEK [1]) [%] | C26ELSA % Inhibition @ 5 μM (MEK [1]) [%]
12 | 146 to 148 °C | 63 |  | C#Cc1ccc(Nc2c(-c3nnc(NCCN4CCOCC4)o3)ccc(F)c2F)c(F)c1 [Example 148, {5-[2-(4-Ethynyl-2-fluoro-phenylamino)-3,4-difluoro-phenyl]-[1,3,4]oxadiazol-2-yl}-(2-morpholin-4-yl-ethyl)-amine] |  | 
13 | 150 to 152 °C (dec.) | 2400 |  | CCc1ccc(Nc2c(-c3nnc(NC[C@@H](O)CO)o3)ccc(F)c2F)c(F)c1 [Example 152, 3-{5-[2-(4-Ethyl-2-fluoro-phenylamino)-3,4-difluoro-phenyl]-[1,3,4]oxadiazol-2-ylamino}-propane-1,2(R)-diol] |  | 
14 | 102 to 106 °C | 34000 |  | OCCCc1ccc(Nc2c(-c3nnc(NCCN4CCOCC4)o3)ccc(F)c2F)c(F)c1 [Example 147, 3-(4-{2,3-Difluoro-6-[5-(2-morpholin-4-yl-ethylamino)-[1,3,4]oxadiazol-2-yl]-phenylamino}-3-fluoro-phenyl)-propan-1-ol] |  | 
15 |  | 5100 |  | OCCNc1nnc(-c2ccc(F)c(F)c2Nc2ccc(CCO)cc2F)o1 [Example 169, 2-(5-{3,4-difluoro-2-[2-fluoro-4-(2-hydroxy-ethyl)phenylamino]-phenyl}-[1,3,4]oxadiazol-2-ylamino)ethanol] |  | 
16 |  | 120 |  | C#Cc1ccc(Nc2c(-c3nnc(NC[C@@H](O)CO)o3)ccc(F)c2F)c(F)c1 [Example 151, 3-{5-[2-(4-Ethynyl-2-fluoro-phenylamino)-3,4-difluoro-phenyl]-[1,3,4]oxadiazol-2-ylamino}-propane-1,2(R)-diol] |  | 
17 | 115.9 to 116.5 °C | 3 |  | C#Cc1ccc(Nc2c(-c3nnc(NCCO)o3)ccc(F)c2F)c(F)c1 [Example 140, 2-{5-[2-(4-Ethynyl-2-fluoro-phenylamino)-3,4-difluoro-phenyl]-[1,3,4]oxadiazol-2-ylamino}-ethanol] |  | 
18 | 97 to 98 °C |  |  | CCc1nnc(-c2ccc(F)c(F)c2Nc2ccc(I)cc2F)o1 [Example 143, [6-(5-Ethyl-[1,3,4]oxadiazol-2-yl)-2,3-difluoro-phenyl]-(2-fluoro-4-iodo-phenyl)-amine] |  | 88
19 | 174 to 177 °C | 710 |  | C=Cc1ccc(Nc2c(-c3nnc(NCCN4CCOCC4)o3)ccc(F)c2F)c(F)c1 [Example 156, {5-[3,4-Difluoro-2-(2-fluoro-4-vinyl-phenylamino)-phenyl]-[1,3,4]oxadiazol-2-yl}-(2-morpholin-4-yl-ethyl)-amine] |  | 
20 | 188 to 189 °C |  | 89 | CCNc1nnc(-c2ccc(F)c(F)c2Nc2ccc(I)cc2F)o1 [Example 4, {5-[3,4-Difluoro-2-(2-fluoro-4-iodo-phenylamino)-phenyl]-[1,3,4]oxadiazol-2-yl}-ethyl-amine] |  | 
21 | 82 to 83 °C |  | 12 | OCCCCNc1nnc(-c2ccc(F)c(F)c2Nc2ccc(I)cc2F)o1 [Example 31, 4-{5-[3,4-Difluoro-2-(2-fluoro-4-iodo-phenylamino)-phenyl]-[1,3,4]oxadiazol-2-ylamino}-butan-1-ol] |  | 
22 | 121 to 122 °C |  | 140 | OCCC1CCN(c2nnc(-c3ccc(F)c(F)c3Nc3ccc(I)cc3F)o2)CC1 [Example 26, 2-(1-{5-[3,4-Difluoro-2-(2-fluoro-4-iodo-phenylamino)-phenyl]-[1,3,4]oxadiazol-2-yl}-piperidin-4-yl)-ethanol] |  | 
23 | 248 to 249 °C |  | 40 | Nc1nnc(-c2ccc(F)c(F)c2Nc2ccc(I)cc2F)o1 [Example 1, 5-[3,4-Difluoro-2-(2-fluoro-4-iodo-phenylamino)-phenyl]-[1,3,4]oxadiazol-2-ylamine] |  | 
24 | 100 to 103 °C |  | 15 | OCCNc1nnc(-c2ccc(F)c(F)c2Nc2ccc(I)cc2F)o1 [Example 29, 2-{5-[3,4-Difluoro-2-(2-fluoro-4-iodo-phenylamino)-phenyl]-[1,3,4]oxadiazol-2-ylamino}-ethanol] |  | 
